# According to patent publication US11730720B2, “ALK5 inhibitors” (THERAVANCE BIOPHARMA R&D IP, LLC, priority 2018, dated 2023):
# Legend:
# [1] = system: TGF-β-stimulated SMAD3 phosphorylation in BEAS-2B cells; assay: Cellular ALK5 potency assay, inhibition of TGF-β stimulated pSMAD3 formation in BEAS-2B cells; assay type: cell-based; conditions: Homo sapiens, inhibition of TGF-β (10 ng/mL) stimulated pSMAD3 formation, 1 hour compound incubation, read-out: BEAS2B pIC50 (converted)
# Description: Example 255: Cellular ALK5 Potency Assay to Measure pIC50, Inhibition of TGF-β Stimulated pSMAD3 Formation in BEAS-2B Cells
# The potency of compounds of the present disclosure for inhibition of TGF-β-stimulated SMAD3 phosphorylation was measured in BEAS-2B cells, a human lung epithelial cell line. TGF-β signals through activin receptor-like kinase 5 (ALK5) immediately prior to SMAD3 phosphorylation.
# BEAS-2B cells were grown using 50% DMEM (Life Technologies) and 50% F-12 (Life Technologies) media, supplemented with 10% Fetal Bovine Serum (ATCC), 25 mM HEPES (Life Technologies), and 1×Pen-Strep (Life Technologies). Cells were cultured in a humidified incubator set at 37° C., 5% CO2, and trypsonized using 0.25% Trypsin with 0.5% polyvinylpyrrolidone (PVP).
# For the assay, BEAS-2B cells were seeded at 7,500 cells/well (25 μL/well) in a 384-well plate and cultured overnight. Before dosing, growth media was aspirated and the wells were rinsed with HBSS Buffer (HBSS with Calcium and Magnesium, Life Technologies) supplemented with 25 mM HEPES (Life Technologies) and 1% Bovine Serum Albumin (Roche). Compounds were serially diluted in DMSO, then further diluted with supplemented HBSS Buffer (50 μL/well) to create a compound plate 3× of the final assay concentration, at 0.3% DMSO. The diluted compounds were then added to the cells (8 μL/well) and incubated at 37° C., 5% CO2 for 1 hour. After the compound incubation, TGF-β (R&D Systems) reconstituted in supplemented HBSS Buffer was added to the cells ([…], final concentration 10 ng/mL) and incubated for a further 30 minutes, after which the cells were immediately lysed with AlphaLISA lysis buffer (PerkinElmer). AlphaLISA Acceptor and Detector beads (PerkinElmer) were added 2 hours apart, then incubated overnight to be read the next day. The potency of the compound was determined through analysis of dose-dependent quantified changes in pSMAD3 signal from baseline (non-compound treated TGF-β stimulated cells). Data are expressed as pIC50 (negative decadic logarithm IC50) values.
# [2] = target: T1, recombinant human ALK5 (TGF-βR1) protein (Homo sapiens, UniProt P36897); assay: Biochemical ALK5 (TGF-βR1) assay to measure pKi (LANCE Ultra ULight kinase assay); conditions: apparent pKi, converted from pIC50 using the Cheng-Prusoff equation
# T1 construct: purchased Life Technologies PR9075A
# T1 sequence (P36897 34-503): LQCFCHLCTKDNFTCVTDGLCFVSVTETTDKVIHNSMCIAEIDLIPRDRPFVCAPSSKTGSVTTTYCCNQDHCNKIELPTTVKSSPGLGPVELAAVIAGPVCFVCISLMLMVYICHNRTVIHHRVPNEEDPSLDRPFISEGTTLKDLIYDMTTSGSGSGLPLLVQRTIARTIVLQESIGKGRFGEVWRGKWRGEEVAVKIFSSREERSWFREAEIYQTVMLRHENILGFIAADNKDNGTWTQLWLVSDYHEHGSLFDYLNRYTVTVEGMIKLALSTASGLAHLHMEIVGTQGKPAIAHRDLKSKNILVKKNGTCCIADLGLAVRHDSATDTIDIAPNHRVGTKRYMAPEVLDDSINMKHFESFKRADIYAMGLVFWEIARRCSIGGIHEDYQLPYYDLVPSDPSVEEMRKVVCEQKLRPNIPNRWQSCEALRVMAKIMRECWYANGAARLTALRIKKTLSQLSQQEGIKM
# Description: Example 254: Biochemical ALK5 (TGF-βR1) Assay to Measure pKi
# The assays were performed in a 384-well plate (24 columns×16 wells/rows). An Echo® 550 Liquid Handler (Labcyte) was used to prepare various intermediate concentrations of compounds of the present disclosure in 100% DMSO. From the intermediate concentrations, a range of concentrations (from 10 μM to 25 pM corresponding to volumes up to 105 nL) were prepared and ejected into a final assay plate to be used to create individual dose response curves for each of the subject compounds. To a separate column within the assay plate, 105 nL of DMSO in each well was used to establish a maximum assay signal. Additionally, 105 nL of 100 μM SD-208, a selective TGF-βR1 inhibitor (Catalog #S7624, Selleck Chemicals), was used in another column of wells to establish a minimal assay signal.
# With a multidrop dispenser, 8 μL of enzyme mixture (1.25× final) was added to each well. The enzyme mixture consisted of 250 pM ALK5 enzyme and 62.5 nM peptide substrate (LANCE® (lanthanide chelate excite) Ultra ULight™-DNA Topoisomerase 2-alpha (Thr1342)) prepared in assay buffer (50 mM HEPES, 10 mM MgCl2, 1 mM EGTA, 0.01% Tween-20, pH 7.5 at room temperature) with 2 mM DTT added prior to use. The plate was then sealed with an adhesive seal and allowed to equilibrate for 60 minutes at room temperature.
# Next, 2 μL of 125 μM ATP (5× final, 125 μM ATP prepared in assay buffer with 2 mM DTT) was added to the incubated mixtures, covered with a MicroClime® Environmental Lid (Product No. LLS-0310, Labcyte) and immediately transferred to 37° C. The reactions were allowed to proceed at 37° C. for 60 minutes before terminating with the addition of 10 μL of detection antibody (LANCE® (lanthanide chelate excite) Ultra Europium-anti-phospo-DNA Topoisomerase 2-alpha (Thr1342)) in detection mixture (12 mM EDTA, 4 nM detection antibody prepared in detection buffer (50 mM Tris-HCl, 150 mM NaCl, 0.5% BSA (Fraction V), pH 7.0)) at room temperature. The plate was then read on a Perkin Elmer EnVision Plate Reader using europium specific reader settings with excitation and emission wavelengths set to 320 or 340 nm and 665 nm, respectively.
# For dose-response analyses, percent inhibition versus compound concentrations were plotted, and pIC50 values were determined from a 4-parameter robust fit model with GraphPad Prism V5 Software (GraphPad Software, Inc., La Jolla, Calif.). This model obtains pIC50 values by fitting the sigmodial dose-response (variable slope) equation to the data. Results were expressed as pIC50 (negative logarithm of IC50) and subsequently converted to pKi (negative logarithm of dissociate constant, K) using the Cheng-Prusoff equation.
# The higher the value of pKi (lower value of Ki), the greater the inhibition of ALK5 activity.
Ki [2] [nM],Structure (SMILES),IC50 [1] [nM]
0.398 to 3.16,"Fc1cc(F)c(-c2n[nH]cc2-c2ccc3ncc(NCC4CCCNC4)cc3n2)cc1Cl (centres unmarked) [Compound 6-66, 6-[3-(5-chloro-2,4-difluoro-phenyl)-1H-pyrazol-4-yl]-N-(3-piperidylmethyl)-1,5-naphthyridin-3-amine]",200 to 1260
0.0398 to 0.316,"Fc1ccc(Cl)cc1-c1nc2ccccn2c1-c1ccc2ncc(N3CCCNCC3)cc2n1 [Compound 3-3, 2-[2-(5-chloro-2-fluoro-phenyl)imidazo[1,2-a]pyridin-3-yl]-7-(1,4-diazepan-1-yl)-1,5-naphthyridine]",25.1 to 158
0.398 to 3.16,"CN(C)C1CCN(c2cnc3ccc(-c4c[nH]nc4-c4ccc(F)c(F)c4)nc3c2)CC1 [Compound 8-7, 1-[6-[3-(3,4-difluorophenyl)-1H-pyrazol-4-yl]-1,5-naphthyridin-3-yl]-N,N-dimethyl-piperidin-4-amine]",25.1 to 158
0.398 to 3.16,"CN1CCN(C2CCN(c3cnc4ccc(-c5nn[nH]c5-c5cc(Cl)ccc5F)cc4c3)CC2)CC1 [Compound 18-6, 6-[5-(5-chloro-2-fluoro-phenyl)-1H-triazol-4-yl]-3-[4-(4-methylpiperazin-1-yl)-1-piperidyl]quinoline]",25.1 to 158
≤ 0.0316,"CNC1CCN(c2cnc3ccc(-c4c[nH]nc4-c4cc(Cl)c(F)cc4F)nc3c2)C1 (centres unmarked) [Compound 6-35, 1-[6-[3-(5-chloro-2,4-difluoro-phenyl)-1H-pyrazol-4-yl]-1,5-naphthyridin-3-yl]-N-methyl-pyrrolidin-3-amine]",≤ 20
0.0398 to 0.316,"CC1(C)CCCN1CCNc1cnc2ccc(-c3nc[nH]c3-c3cc(Cl)ccc3F)nc2c1 [Compound 2-3, 6-[5-(5-chloro-2-fluoro-phenyl)-1H-imidazol-4-yl]-N-[2-(2,2-dimethylpyrrolidin-1-yl)ethyl]-1,5-naphthyridin-3-amine]",25.1 to 158
3.98 to 31.6,"C[C@@H]1CN(c2cnc3ccc(-c4c[nH]nc4-c4cc(Cl)ccc4F)nc3c2)[C@H](C)CN1C (racemic) [Compound 1-75, 2-[3-(5-chloro-2-fluoro-phenyl)-1H-pyrazol-4-yl]-7-[rac-(2R,5R)-2,4,5-trimethylpiperazin-1-yl]-1,5-naphthyridine]",25.1 to 158
0.0398 to 0.316,"Fc1ccc(Cl)cc1-c1[nH]cnc1-c1ccc2ncc(Nc3ccc(N4CCNCC4)cn3)cc2n1 [Compound 2-4, 6-[5-(5-chloro-2-fluoro-phenyl)-1H-imidazol-4-yl]-N-(5-piperazin-1-yl-2-pyridyl)-1,5-naphthyridin-3-amine]",25.1 to 158
0.398 to 3.16,"Fc1ccc(Cl)cc1-c1n[nH]cc1-c1ccc2ncc(NCC3CCCNC3)cc2n1 (centres unmarked) [Compound 1-117, 6-[3-(5-chloro-2-fluoro-phenyl)-1H-pyrazol-4-yl]-N-(3-piperidylmethyl)-1,5-naphthyridin-3-amine]",200 to 1260
0.0398 to 0.316,"CN1CCN(c2ccc(Nc3cnc4ccc(-c5nc[nH]c5-c5cc(Cl)ccc5F)nc4c3)nc2)CC1 [Compound 2-1, 6-(5-(5-chloro-2-fluorophenyl)-1H-imidazol-4-yl)-N-(5-(4-methylpiperazin-1-yl)pyridin-2-yl)-1,5-naphthyridin-3-amine]",25.1 to 158
0.0398 to 0.316,"Fc1cc(F)c(-c2n[nH]cc2-c2ccc3ncc(NCC4CN5CCN4CC5)cc3n2)cc1Cl (centres unmarked) [Compound 6-4, 6-[3-(5-chloro-2,4-difluoro-phenyl)-1H-pyrazol-4-yl]-N-(1,4-diazabicyclo[2.2.2]octan-2-ylmethyl)-1,5-naphthyridin-3-amine]",25.1 to 158
0.0398 to 0.316,"Fc1ccc(Cl)cc1-c1[nH]cnc1-c1ccc2ncc(-c3cn[nH]c3)cc2c1 [Compound 17-1, 6-(5-(5-chloro-2-fluorophenyl)-1H-imidazol-4-yl)-3-(1H-pyrazol-4-yl)quinoline]",≤ 20
0.0398 to 0.316,"CNC1CN(c2cnc3ccc(-c4c[nH]nc4-c4cc(Cl)c(F)cc4F)nc3c2)C1 [Compound 6-31, 1-[6-[3-(5-chloro-2,4-difluoro-phenyl)-1H-pyrazol-4-yl]-1,5-naphthyridin-3-yl]-N-methyl-azetidin-3-amine]",≤ 20
≤ 0.0316,"Fc1ccc(Cl)cc1-c1n[nH]cc1-c1ccc2ncc(-c3cnc4n3CCN4)cc2n1 [Compound 1-106, 2-[3-(5-chloro-2-fluoro-phenyl)-1H-pyrazol-4-yl]-7-(6,7-dihydro-5H-imidazo[1,2-a]imidazol-3-yl)-1,5-naphthyridine]",25.1 to 158
0.398 to 3.16,"Fc1ccc(-c2n[nH]cc2-c2ccc3ncc(C4=CCNC4)cc3n2)cc1F [Compound 8-20, 2-[3-(3,4-difluorophenyl)-1H-pyrazol-4-yl]-7-(2,5-dihydro-1H-pyrrol-3-yl)-1,5-naphthyridine]",25.1 to 158
3.98 to 31.6,"COC(=O)c1cnc2ccc(-c3[nH]nnc3-c3ccccc3F)nc2c1 [Compound 12-1, methyl 6-(4-(2-fluorophenyl)-1H-1,2,3-triazol-5-yl)-1,5-naphthyridine-3-carboxylate]",200 to 1260
0.398 to 3.16,"CNCCn1cc(-c2cnc3ccc(-c4c(-c5cc(Cl)ccc5F)[nH]c5cccnc45)cc3c2)cn1 [Compound 21-1, 2-(4-(6-(2-(5-chloro-2-fluorophenyl)-1H-pyrrolo[3,2-b]pyridin-3-yl)quinolin-3-yl)-1H-pyrazol-1-yl)-N-methylethan-1-amine]",200 to 1260
0.398 to 3.16,"Fc1ccc(Cl)cc1-c1[nH]cnc1-c1ccc2ncc(N3CCCNCC3)cc2c1 [Compound 17-6, 6-[5-(5-chloro-2-fluoro-phenyl)-1H-imidazol-4-yl]-3-(1,4-diazepan-1-yl)quinoline]",25.1 to 158
0.398 to 3.16,"NC1CCN(c2cnc3ccc(-c4c[nH]nc4-c4ccccc4F)nc3c2)C1 (centres unmarked) [Compound 11-2, 1-(6-(3-(2-fluorophenyl)-1H-pyrazol-4-yl)-1,5-naphthyridin-3-yl)pyrrolidin-3-amine]",25.1 to 158
